Experimental data reported in patent US8372879B2, “4-(heterocycloalkyl) benzene-1,3-diol compounds as tyrosinase inhibitors, process for the preparation thereof and use thereof in human medicine and also in cosmetics” (Galderma Research & Development, priority 2008, dated 2013).

Experiments:
[1] = Cell toxicity (3H-leucine incorporation) in melanogenesis assay; format: cell-based; conditions: human, MNT1 human melanoma cells, incubation for 24 h
Description: (§1) The inhibition of melanogenesis is measured in MNT1 human melanoma cells according to a protocol adapted from Reigner et al., Cell Mol Biol (1999) 45: 969-980. The assay is based on the concomitant incorporation of 2 radiolabelled tracers: ^14C-thiouracil is incorporated into the neosynthesized melanin and reflects melanogenesis, whereas ^3H-leucine is incorporated into the proteins and reflects cell viability and, consequently, the toxicity of the compounds tested.
(§2) The MNT1 cells are seeded into 96-well plates in the presence of the test compounds and of the radio-isotopes. After incubation for 24 h at 37° C., the cells are washed and the amount of the 2 radioisotopes is measured. The test compounds are evaluated in terms of dose-response so as to calculate an IC50 for inhibition of melanogenesis on the basis of the ^14C incorporation which is standardized through the ^3H incorporation. An IC50 for cell toxicity is also calculated on the basis of the ^3H incorporation.

[2] = tested on: MNT1 human melanoma cells; test: Melanogenesis inhibition assay (14C-thiouracil incorporation standardized through 3H-leucine); format: cell-based; conditions: MNT-1, incubation for 24 h, 14C incorporation standardized through 3H incorporation
Description: as §1, §2

[3] = biological target: T1, tyrosinase (Mus musculus, UniProt P11344); test: Tyrosinase activity inhibition assay (B16F1 cell lysate, L-tyrosine/MBTH, 520 nm); format: biochemical, murine; conditions: lysate of B16F1 cells, 6 hours of incubation at 37° C.; read-out: Tyrosine hydroxylase/Dopa oxidase IC50
T1 construct: the supernatant obtained constitutes the cell lysate used as tyrosinase source in the enzymatic assay; endogenous in cells; host or cells: B16F1 murine melanoma cells, stimulated with alpha-MSH; detergent/ultrasound lysate supernatant
T1 sequence (P11344 19-533): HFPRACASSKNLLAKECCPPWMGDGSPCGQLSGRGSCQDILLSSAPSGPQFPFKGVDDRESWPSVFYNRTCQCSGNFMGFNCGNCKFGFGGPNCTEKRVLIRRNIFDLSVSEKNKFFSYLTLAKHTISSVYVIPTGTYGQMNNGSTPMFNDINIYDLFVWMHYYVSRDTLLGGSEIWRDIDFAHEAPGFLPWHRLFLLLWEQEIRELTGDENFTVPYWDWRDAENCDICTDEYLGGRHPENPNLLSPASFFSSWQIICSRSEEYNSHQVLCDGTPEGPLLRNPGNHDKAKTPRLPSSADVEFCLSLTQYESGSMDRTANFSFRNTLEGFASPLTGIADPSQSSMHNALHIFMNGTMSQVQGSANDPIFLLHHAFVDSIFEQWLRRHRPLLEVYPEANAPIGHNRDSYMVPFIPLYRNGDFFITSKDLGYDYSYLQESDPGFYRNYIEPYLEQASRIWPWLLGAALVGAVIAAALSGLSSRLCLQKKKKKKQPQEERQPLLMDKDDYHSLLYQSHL
Description: The activity of the inhibitors is measured using a lysate of B16F1 cells (murine melanoma line). In the presence of the L-tyrosine substrate, the tyrosinase present in these cells catalyses the hydroxylation of L-tyrosine to give L-DOPA and then the oxidation of the L-DOPA to give dopaquinone. In the presence of MBTH (3-methyl-2-benzothiazolinone hydrazone), the dopaquinone is trapped so as to form a pink complex which absorbs at 520 nm.
The B16F1 cells are cultured in DMEM medium+10% foetal calf serum+10^−9M α-MSH for 4 days at 37° C. under 7% CO2. They are treated with trypsin, washed in PBS, counted and pelleted. The pellet is taken up at 10^7 cells/ml in lysis buffer (10 mM sodium phosphate, pH 6.8-1% Igepal) and the suspension is treated with ultrasound for 10 seconds. After centrifugation for 30 minutes at 4000 rpm, the supernatant obtained constitutes the cell lysate used as tyrosinase source in the enzymatic assay.
The assays are carried out in duplicate in 384-well plates in a total volume of 50 μl. […]
The plate is incubated at 37° C. and a spectro-photometric reading is carried out at 520 nm after 6 hours of incubation. In order to avoid any possible absorption of the products, the system uses corrected absorbance (absorbance at time 6 h—absorbance at time zero). […]

| IC50 [2] [µM] | IC50 [3] [nM] | Compound | IC50 at 24 h [1] [µM] |
| --- | --- | --- | --- |
| 15 |  | CCCCc1ccc(O)cc1O [4-butylresorcinol (Rucinol), 4-butylresorcinol, reference compound] | 55 |
| 1 | 100 | Oc1ccc(C2CCOCC2)c(O)c1 [Compound 1, 4-(tetrahydropyran-4-yl)benzene-1,3-diol] | > 999 |
|  | 400 | Oc1ccc(C2CCSCC2)c(O)c1 [Compound 2, 4-(tetrahydrothiopyran-4-yl)benzene-1,3-diol] |  |
